Laboratory results reported in US20240115554A1, “METHODS FOR TREATING OBSTRUCTIVE HYPERTROPHIC CARDIOMYOPATHY” (Cytokinetics, Incorporated, priority 2022, published 2024).
“And” between values parts separate entries of the source, which are not always exact repeats. Equal entries are not always repeated.

What was measured:
Assay type in all cases: in vivo, human
healthy adults = experiment: Phase 1 echocardiography pharmacodynamics (LVEF)
Procedure: Echocardiography. For PD assessments of LVEF, echocardiograms for the SAD and MAD cohorts were interpreted by the echocardiography core laboratory and used for all data analysis and dose level review decisions while immediate local interpretation of the echocardiograms was performed for safety monitoring. […] Echocardiograms on day 3 (48 h after dosing) were obtained only if the 24 h LVEF had not returned to near or above baseline, as determined by the investigator. In the MAD cohorts, echocardiograms were obtained on day −1, pre-dose on day 1, and at 1.5 h post dose on days 2, 4, and 9, and at 1.5, 24, and 72 h post dose on day 14 (for the 5-mg and 10-mg cohorts) or on day 17 (for the 7.5-mg cohort). Echocardiograms were obtained 3 days after the last dose (on day 17 or 20) only if the participant's prior LVEF was not near or above baseline, as determined by the investigator. […] Descriptive statistics of the echocardiographic parameters were generated using SAS® Version 9.3 or higher. Dose-response analysis was performed using analysis of covariance (ANCOVA) to identify the least-squares mean difference (aficamten minus placebo). To analyze the impact of drug dose on echocardiographic parameters in the SAD and MAD cohorts, an inferential analysis was conducted on the PD analysis set using linear mixed models for repeated-measures analysis of covariance (ANCOVA). The ANCOVA used baseline value as a covariate, included treatment, time-point, and time-point-by-treatment interaction as fixed effects, and change from baseline as the dependent variable. The unstructured variance-covariance structure was used, and the model accounted for the time-point repeated measures. The ANCOVA analysis was conducted separately for each study part and for each PD parameter. The least-squares means, the difference in least squares means (active minus placebo), and the associated 2-sided 95% CIs were presented for each comparison. Analyses of concentration ‘bin’ and exposure-response were also performed using ANCOVA. SAS® PROC MIXED was used for all comparative analyses. […] A concentration bin ANCOVA was conducted using linear mixed models for repeated-measures analyses with concentration bin group as a fixed effect, baseline PD parameters as a covariate, change from baseline as the dependent variable, and a random intercept to adjust for the repeated measures. The unstructured variance-covariance structure was used. […] The ANCOVA compared the change in PD parameters between each bin versus the pooled placebo group. The least-squares means, the difference in least squares means (bin group minus placebo), and the associated 2-sided 95% CIs were presented for each comparison. The ANCOVA analysis was conducted separately for each study part. For all time-points at which both PK data and PD measures were available, the time-points were pooled for the analysis. […] From least to greatest, the data were then divided into 5 groups of observations (‘bins’), each consisting of 20% of the data points. Each bin was treated as a separate group. […] The above analysis was then repeated using concentration as a continuous variable to estimate the exposure-response trend. Both a random intercept effect and a random concentration effect were added to the ANCOVA. The estimate of the concentration slope, with corresponding 2-sided 95% CIs, and the ANCOVA analyses were presented for each study part.

[1] = test system: patients with symptomatic oHCM; experiment: Open-label extension: echocardiography (LVOT-G, LVEF)
Procedure: Patients were up-titrated to Dose 2 if either of the following conditions were met on echocardiography: (1) resting LVOT-G ≥30 mmHg and the biplane LVEF ≥50%; or (2) resting LVOT-G <30 mmHg, post-Valsalva LVOT-G ≥50 mmHg, and the biplane LVEF ≥50%. […] If LVEF was <50%, treatment was discontinued. If LVEF was <40%, treatment is interrupted.
Ambulatory cardiac monitoring is performed on weeks 48, 96, 144, 192 and 240. Cardiac magnetic resonance is monitored at weeks 48, 144 and 240. (See FIG. 26).
At Week 2, each patient has a truncated echocardiogram following administration of their dose. Patients are up-titrated to Dose 2 if post-Valsalva LVOT-G ≥30 mmHg, and the biplane LVEF ≥55%. […] If LVEF is <50%, treatment is discontinued.
(§1) At Weeks 4, 6, 12, and every 12 weeks thereafter, each patient has an echocardiogram or truncated echocardiogram following administration of their dose (a truncated echocardiogram at weeks 4 and 6; and an echocardiogram at week 12 and every 12 weeks thereafter) to determine whether additional dose titration is needed (see Table 21 and Table 22). Patient reported outcomes, laboratory assessments, measurements of NT-proBNP, hs-cTnI, and other biomarkers are performed at week 12 and every 12 weeks thereafter. Ambulatory cardiac monitoring is performed on weeks 48, 96, 144, 192 and 240 Cardiac magnetic resonance is monitored at weeks 48, 144 and 240. If a patient develops an LVEF <40% after the Week 2 visit, a repeat echocardiogram may be performed to confirm the initial finding (preferably within 24 hours). If the echocardiography findings are confirmed, the patient will undergo a ≥2-day drug holiday.
Echocardiographic parameters to be measured at least include the left ventricular parameters (resting left ventricular outflow tract pressure gradient (LVOT-G), post-Valsalva LVOT-G, LVEF, LVFS, left ventricular strain, left ventricular end diastolic volume (LVEDV), left ventricular end systolic volume (LVESV), LV Stroke Volume), septal and free wall thickness, E/e′, E/A, LA volume.

[2] = test system: patients with symptomatic oHCM; experiment: Open-label extension: cardiac biomarkers (NT-proBNP, hs-cTnI); conditions: Week 48
Procedure: as §1

[3] = SAD 50 mg (n = 11), change from baseline at […]

SMILES: CCc1nc(-c2ccc3c(c2)CC[C@H]3NC(=O)c2cnn(C)c2)no1 [aficamten, (R)—N-(5-(5-ethyl-1,2,4-oxadiazol-3-yl)-2,3-dihydro-1H-inden-1-yl)-1-methyl-1H-pyrazole-4-carboxamide]
- plasma aficamten concentration with minimal suppression of LVEF in most participants (healthy adults; MAD cohorts): < 180 ng/mL
- time within which LVEF returned to baseline in participants whose LVEF fell below 50% (healthy adults; Phase 1): ≤ 24 h
- E, Mean (healthy adults; SAD 50 mg (n = 11), […]): 64 cm/s
- A, CFB Mean (healthy adults; [3]): 2.5 cm/s
- E, CFB Mean (healthy adults; [3]): -2.7 cm/s
- Heart rate, CFB Mean (healthy adults; [3]): 0.5 bpm
- IVCT, CFB Mean (healthy adults; [3]): 0.4 ms
- IVRT, CFB Mean (healthy adults; [3]): 0.5 ms
- LAV, CFB Mean (healthy adults; [3]): 0 mL
- LV EDV, CFB Mean (healthy adults; [3]): 6.6 mL
- LV ESV, CFB Mean (healthy adults; [3]): 8.1 mL
- LV ET, CFB Mean (healthy adults; [3]): 1.9 ms
- LV SV, CFB Mean (healthy adults; [3]): -6.2 mL
- LVEF, CFB Mean (healthy adults; [3]): −5.8%
- e′ lateral, CFB Mean (healthy adults; [3]): -1.3 cm/s
- participants with absolute reduction in LVEF of ≥5% from baseline (healthy adults; SAD 1-, 10-, or 25-mg cohorts): no participants
- participants with reduction in LVEF to <50% (healthy adults; SAD 50-mg cohort (2 of 11)): 18%
- LVEF of the participants with LVEF <50% (healthy adults; SAD 50-mg cohort, 2 participants, core laboratory assessment): 48.2% and 45.5%
- mean maximum reduction in LVEF (healthy adults; SAD 50-mg group, […] post dose): 5.8%
- participants with reduction in LVEF to <50% (healthy adults; SAD 75-mg cohort (1 of 1)): 100%
- relationship of plasma concentration to change in LVEF (healthy adults; SAD cohorts): trend toward a decrease in LVEF
- participants with LVEF <45% (healthy adults; SAD cohorts, core laboratory): Only the participant in the 75-mg cohort experienced LVEF <45%
- reduction in LVEF to <50% (healthy adults; any of the MAD cohorts, core laboratory assessment): not observed
- decrease in mean LVEF from baseline (least-squares mean difference) (healthy adults; single 50-mg dose, […] post dose): 5.5%
- LVEF after reduction (healthy adults; single dose of 75 mg, 1 participant, approximately […] after dosing): 34.1%
- reduction in LVEF (healthy adults; single participant, 75 mg, […] post dose): 31.5%
- reduction in LVOT gradients over time ([1]; Weeks 2-24, site reads, Example 3a): significant and sustained reductions in LVOT gradients
- Δ LVEF ([1]; baseline to week 48): −5±3%
- Δ Valsalva LVOT-G mean ([1]; baseline to week 48): −47 mmHg
- ΔResting LVOT-G mean ([1]; baseline to week 48): −32 mmHg
- reductions in LVEF over time ([1]; through Week 24, Example 3a): minimal and stable reductions in LVEF
- NT pro-BNP reduction from baseline [2]: 70%
